{
  "source": "patent US20240361338A1",
  "about": "“DIAGNOSIS AND TREATMENT OF ECTOPIC ENDOMETRIOSIS” (FERRING B.V., priority 2021, published 2024)",
  "key": {"[1]": {"system": "AKT", "experiment": "Western blot of AKT and P-AKT in ectopic EMSCs", "assay_type": "cell-based, human", "conditions": "100 nM quinagolide", "protocol": "(§1) FIG. 6: Quinagolide effect on AKT activation. A: Representative western blot analysis and quantification of AKT levels in eutopic and ectopic EMSCs treated for 48 h with 100 nM quinagolide (Q), compared to untreated cells (CTL). B: Representative western blot analysis and quantification of P-AKT levels, normalized to AKT expression, in eutopic and ectopic EMSCs treated for 48 h with 100 nM quinagolide (Q), respect to untreated cells (CTL). C: Representative western blot analysis and quantification of P-AKT levels in HUVECs, ectopic […] basal), and in […] co-culture with HUVECs, treated or not for 24 h with 100 nM quinagolide (Q100 nM). Data are represented as mean±SD of at least two independent experiments, performed on different EMSC lines, and normalized to Vinculin and to untreated cells (CTL). One-way ANOVA was performed: *=p<0.05 and **=p<0.001 vs CTL. Cell pellets were lysed at 4° C. for 15 minutes in RIPA buffer supplemented with protease and phosphatase inhibitors cocktail and PMSF (Sigma-Aldrich). Proteins were quantified using Bradford solution following the manufacturer procedures (Bio-Rad Inc., Berkely, CA, USA) and aliquots of cell lysates containing 50 μg of proteins were run on 4-12% Mini-Protean TGX Stain-Free Gels (Bio-Rad) under reducing conditions and transferred onto PVDF membrane filters using the iBLOT2 system (Life Technologies). […]"}, "[2]": {"system": "AKT", "experiment": "Western blot of P-AKT in eutopic EMSCs", "assay_type": "cell-based, human", "conditions": "eutopic cell lines, 100 nM quinagolide, 24 hours (text; legend 48 h)", "protocol": "as §1"}, "[3]": {"system": "eutopic E-MSCs", "experiment": "Endothelial differentiation (CD31) of eutopic E-MSCs in co-culture with HUVECs", "assay_type": "cell-based, human", "conditions": "100 nM, 24-h treatment, 48 h co-culture with HUVECs"}, "[4]": {"system": "eutopic E-MSCs", "experiment": "Matrigel transwell invasion assay, eutopic E-MSCs", "assay_type": "cell-based, human", "conditions": "100 nM, 48 h, vs untreated", "protocol": "FIG. 4: Quinagolide effect on EMSCs invasion. A and B: Representative micrographs (A) and quantification (B) of quinagolide effect (100 nM) on eutopic and ectopic (both ovarian and peritoneal) EMSCs invasion (original magnification: ×100). C: Concentration response effect of quinagolide treated ectopic EMSCs invasion. D and E: Quantification (D) and representative micrographs (E) (original magnification: ×100) of invasion assays performed on ectopic EMSCs (both ovarian and peritoneal), treated with 100 nM quinagolide (Q100 nM), 5 μM spiperone(S) or a combination of quinagolide and spiperone (S+Q100 nM). All invasion data are represented as mean±SD of at least three independent experiments, performed on different EMSC lines, and normalized to untreated cells (CTL). One-way ANova was performed: *=p<0.05 and **=p<0.001 vs CTL. Quinagolide powder (provided by Ferring Pharmaceuticals) was stored at 4° C. and resuspended in dimethylsulphoxide (DMSO) to a stock solution of 1 mM immediately before use. Spiperone powder (Sigma-Aldrich) was resuspended in water to a stock concentration of 1 mM and stored at −20° C. […] At least five pictures per transwell were acquired (original magnification: 100×), and the percentage of transwell area covered by invaded EMSCs was quantitatively measured by ImageJ software."}, "[5]": {"system": "VEGF", "experiment": "VEGF levels in the E-MSC-HUVEC coculture model", "assay_type": "cell-based, human", "conditions": "quinagolide treated coculture", "protocol": "An indirect co-culture assembly was obtained plaiting HUVECs and E-MSCs at a ratio of 1:1 (1.5×10^4/cell line) in E-MSC medium in T25 and maintaining the co-culture for 48 h in 37° C. and 5% CO2 atmosphere incubator. HUVECs and E-MSCs cultured alone were used as control for each experiment."}, "[6]": {"target": "dopamine D2 (Homo sapiens, UniProt P14416)", "sequence (P14416 1-414 isoform P14416-2)": "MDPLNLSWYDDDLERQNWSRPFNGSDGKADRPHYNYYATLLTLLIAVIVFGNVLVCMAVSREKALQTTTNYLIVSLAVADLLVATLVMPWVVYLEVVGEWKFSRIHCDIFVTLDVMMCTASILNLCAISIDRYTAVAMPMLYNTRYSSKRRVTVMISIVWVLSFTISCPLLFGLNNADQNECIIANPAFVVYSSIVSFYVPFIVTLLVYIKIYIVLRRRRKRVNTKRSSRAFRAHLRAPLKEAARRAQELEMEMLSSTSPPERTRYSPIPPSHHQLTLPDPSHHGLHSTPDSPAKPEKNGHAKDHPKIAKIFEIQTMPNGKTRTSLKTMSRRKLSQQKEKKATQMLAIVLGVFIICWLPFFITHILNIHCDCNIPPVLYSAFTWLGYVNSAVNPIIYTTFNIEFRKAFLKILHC", "conditions": "Igbokwe et al, 2009; read-out: EC50 as D2 agonist; cited from earlier work"}},
  "data": [
    {"smiles": "CCCN1C[C@@H](NS(=O)(=O)N(CC)CC)C[C@@H]2Cc3c(O)cccc3C[C@H]21", "note": "[quinagolide, N,N-diethyl-N′-[(3S,4aS,10aR)-6-hydroxy-1-propyl-1,2,3,4,4a,5,10,10a-octahydrobenzo[g]quinolin-3-yl]sulfamide]", "values": [
      {"measurement": "total AKT levels", "setting": "[1]; ectopic EMSCs, 48 h (FIG. 6A)", "value": "reduced"},
      {"measurement": "AKT phosphorylation", "setting": "[1]; ectopic cell lines, 24 hours (text; legend 48 h)", "value": "significant decrease"},
      {"measurement": "AKT phosphorylation", "setting": "[2]", "value": "significant decrease"},
      {"measurement": "percentage of CD31 expressing E-MSCs after co-culture", "setting": "[3]", "value": "no significant alteration"},
      {"measurement": "invasion of eutopic E-MSC lines", "setting": "[4]", "value": "significantly reduced"},
      {"measurement": "levels of VEGF in the coculture model", "setting": "[5]", "value": "did not reduce"},
      {"measurement": "EC50", "setting": "[6]", "value": 0.058, "unit": "nM"}
    ]}
  ]
}
